Holding throughout (type): cell-based
The target of one test is T1, SMARCA2 (Homo sapiens, UniProt P51531).
T1 construct: endogenous in cells; host or cells: NCI-H520 (given as NCIH520 / NCIH1520 / H520)
In words: SMARCA2 protein degradation in NCIH520 cells by In Cell Western (ICW). Particulars: highest concentration 1 μM; for DC50: H520 cells, overnight incubation (maximum 18 hours), read-out: DC50 (SM2_H520): SMARCA2 degradation potency; for Dmax: NCI-H520, overnight incubation (maximum 18 hours), read-out: Dmax % (SM2_H520): maximum SMARCA2 degradation within the concentrations tested. On the procedure:
Compounds were dissolved in DMSO to make 10 mM stock and 3-fold series dilutions were further conducted keeping the highest concentration 10 μM. NCIH11693 and NCIH1520 cells were maintained in PRMI 1640 medium (Corning Cellgro, Catalog #: 10-040-CV) supplemented with 10% v/v FBS (GE Healthcare, Catalog #: SH30910.03) by splitting 1:3 twice a week.
SMACRA2 and SMARCA4 Protein Degradation DC50 Values in NCIH1693 and NCIH520 Cells by in Cell Western (ICW) Analysis.
Cells were trypsinized and 30 thousand cells/well were seeded into 384-well plates and were allowed to grow for 1-2 hours at 37° C. Eight-point, 3-fold serial dilutions of compounds from 0.5 mM stocks were added to the cells (using digital Dispenser D300-Tecan, keeping highest concentration 1 μM and normalizing with DMSO at the highest dispensed volume). Plates were incubated at 37° C. for overnight (maximum 18 hours). Cells incubated with DMSO was used as a vehicle control.
To perform In Cell Western, medium was removed from all the wells leaving cells attached to the surface. After removing the medium, cells were fixed within the plates with 40 μL of 4% formaldehyde by incubating at room temperature for 30 minutes, and then permeabilized with wash buffer (1×PBS with 0.1% Triton X-100) by washing the plate 5 times with 50 μL/well. Before labeling with primary antibodies, cells were blocked with 30 μL/well of blocking buffer (Licor Odyssey blocking buffer PBS #927-40000) for 30 minutes at room temperature. To measure SMARCA2 or SMARCA4 proteins, cells were labeled with 20 μL/well of anti SMARCA2 or SMACRA4 antibodies (Cell Signaling BRM #11966S 1:800, Cell Signaling BRG #49360S 1:800) diluted in Li-Cor Odyssey blocking buffer-PBS #927-40000, followed by overnight incubation at 4° C.
The next day, plates were washed 5×5 minutes with 50 μL/well of washing buffer to remove all the excess primary antibody and then 20 μL from a mixture of secondary antibody and fluorescent DNA specific dye (Goat anti rabbit 1:500 IRDye-800CW #92632211, and DRAQ5™ 1:2000-#ab108410) was added to each well. Plates were incubated for 1 hour at room temperature with gentle rocking. Cells were washed 5 times with 50 μL/well wash buffer, followed by one last wash with DI water, followed by 10 mins drying at 37° C. oven before scanning. Plates were scanned using Li-Cor Odyssey CLx imaging system to acquire integrated intensities at 700 nm and 800 nm. SMARCA signals were normalized to total cell count and then these normalized values were used to calculate the percent degradation relative to DMSO control and maximum inhibition. DC50s were calculated by using the GraphPad Prism4 program based on sigmoidal dose response equation ([Inhibitor] vs. normalized response-Variable slope).
In Table 36, the DC50/Dmax% (SM2_H520) refers to SMARCA2 degradation potency/maximum SMARCA2 degradation within the concentrations in H520 cells and DC50/Dmax% (SM4_H520) refers to SMARCA4 degradation potency/maximum SMARCA4 degradation within the concentrations tested in H520 cells.

The next test has as its target T2, SMARCA2-HiBiT (Homo sapiens, UniProt P51531).
T2 construct: SMARCA2-HiBiT knock-in Hela monoclonal cell (CS302366); host or cells: HeLa monoclonal knock-in line (CRISPR HiBiT knock-in at the endogenous locus, heterozygous)
In words: SMARCA2 HiBiT degradation assay in HeLa cells. Particulars: 18 hours incubation; for DC50: read-out: HeLa_HiBit-SM2 DC50; for Dmax: HeLa, read-out: HeLa-HiBit-SM2 Dmax (%). Summed up: (§1)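 HeLa monoclonal lines with heterozygous HiBiT knock-in were seeded at 2500 cells/well in EMEM with 10% FBS and treated with compound for 18 h at 37 °C. Remaining tagged protein was measured by Nano-Glo HiBiT lytic luminescence after 30–60 min at RT, and values came from curve fitting.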
A general note: The HiBiT peptide binds its large partner to form an active luciferase.

The next test deals with T3, SMARCA4-HiBiT (Homo sapiens, UniProt P51532).
T3 construct: SMARCA4-HiBiT knock-in Hela monoclonal cell (CS3023226); host or cells: HeLa monoclonal knock-in line (CRISPR HiBiT knock-in at the endogenous locus, heterozygous)
T3 sequence (P51532 whole entry): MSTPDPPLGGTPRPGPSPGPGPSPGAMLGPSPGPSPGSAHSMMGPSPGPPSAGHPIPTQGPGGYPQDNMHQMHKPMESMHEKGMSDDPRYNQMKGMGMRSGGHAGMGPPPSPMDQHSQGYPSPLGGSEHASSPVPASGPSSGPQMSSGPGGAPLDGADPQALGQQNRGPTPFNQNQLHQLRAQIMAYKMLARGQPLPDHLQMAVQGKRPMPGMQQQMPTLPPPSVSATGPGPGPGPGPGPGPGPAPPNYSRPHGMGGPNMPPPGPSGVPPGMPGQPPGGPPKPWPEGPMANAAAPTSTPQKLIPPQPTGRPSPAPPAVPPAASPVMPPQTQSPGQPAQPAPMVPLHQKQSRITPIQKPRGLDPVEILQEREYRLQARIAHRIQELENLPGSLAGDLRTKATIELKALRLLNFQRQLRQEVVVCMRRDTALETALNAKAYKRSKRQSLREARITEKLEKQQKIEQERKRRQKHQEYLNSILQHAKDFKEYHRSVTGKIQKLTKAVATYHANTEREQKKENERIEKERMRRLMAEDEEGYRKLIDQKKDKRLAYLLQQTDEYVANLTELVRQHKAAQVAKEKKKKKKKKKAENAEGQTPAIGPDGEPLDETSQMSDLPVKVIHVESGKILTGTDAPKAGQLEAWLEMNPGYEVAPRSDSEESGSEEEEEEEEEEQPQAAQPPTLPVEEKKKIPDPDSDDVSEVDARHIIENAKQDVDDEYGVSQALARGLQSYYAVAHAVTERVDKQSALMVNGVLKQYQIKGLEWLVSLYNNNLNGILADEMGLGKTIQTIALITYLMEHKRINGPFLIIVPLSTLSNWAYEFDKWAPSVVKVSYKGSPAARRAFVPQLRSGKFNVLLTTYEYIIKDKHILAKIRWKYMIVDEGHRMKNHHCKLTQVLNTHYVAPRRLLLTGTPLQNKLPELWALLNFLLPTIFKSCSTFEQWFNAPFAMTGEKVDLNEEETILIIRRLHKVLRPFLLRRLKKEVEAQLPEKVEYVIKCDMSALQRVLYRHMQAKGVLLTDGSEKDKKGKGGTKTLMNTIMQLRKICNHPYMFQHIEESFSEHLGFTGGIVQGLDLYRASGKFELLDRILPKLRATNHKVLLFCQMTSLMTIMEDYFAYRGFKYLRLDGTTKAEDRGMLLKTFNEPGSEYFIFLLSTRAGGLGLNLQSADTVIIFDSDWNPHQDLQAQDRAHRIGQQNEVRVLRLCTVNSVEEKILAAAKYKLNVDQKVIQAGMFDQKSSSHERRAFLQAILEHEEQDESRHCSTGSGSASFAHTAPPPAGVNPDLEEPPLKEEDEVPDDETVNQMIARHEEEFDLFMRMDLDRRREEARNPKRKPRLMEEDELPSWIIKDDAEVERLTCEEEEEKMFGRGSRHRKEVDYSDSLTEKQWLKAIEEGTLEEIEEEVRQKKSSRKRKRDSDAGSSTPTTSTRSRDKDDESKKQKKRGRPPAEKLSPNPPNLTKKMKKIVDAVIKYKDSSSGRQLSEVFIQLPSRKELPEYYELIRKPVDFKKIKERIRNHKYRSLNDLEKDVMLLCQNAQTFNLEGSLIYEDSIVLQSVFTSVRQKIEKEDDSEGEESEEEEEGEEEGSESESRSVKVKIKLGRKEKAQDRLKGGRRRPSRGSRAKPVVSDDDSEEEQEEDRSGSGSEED
Briefly: SMARCA4 HiBiT degradation assay in HeLa cells. The note with it: 18 hours incubation; for DC50: read-out: HeLa-HiBit-SM4 DC50; for Dmax: HeLa, read-out: HeLa-HiBit-SM4 Dmax (%). A digest of the protocol:
as §1

Consider 10 compounds from US12448389B2, “BRM targeting compounds and associated methods of use” (Prelude Therapeutics Incorporated, priority 2020, dated 2025).

SMILES strings stand for the structures.

T1 sequence (P51531 whole entry): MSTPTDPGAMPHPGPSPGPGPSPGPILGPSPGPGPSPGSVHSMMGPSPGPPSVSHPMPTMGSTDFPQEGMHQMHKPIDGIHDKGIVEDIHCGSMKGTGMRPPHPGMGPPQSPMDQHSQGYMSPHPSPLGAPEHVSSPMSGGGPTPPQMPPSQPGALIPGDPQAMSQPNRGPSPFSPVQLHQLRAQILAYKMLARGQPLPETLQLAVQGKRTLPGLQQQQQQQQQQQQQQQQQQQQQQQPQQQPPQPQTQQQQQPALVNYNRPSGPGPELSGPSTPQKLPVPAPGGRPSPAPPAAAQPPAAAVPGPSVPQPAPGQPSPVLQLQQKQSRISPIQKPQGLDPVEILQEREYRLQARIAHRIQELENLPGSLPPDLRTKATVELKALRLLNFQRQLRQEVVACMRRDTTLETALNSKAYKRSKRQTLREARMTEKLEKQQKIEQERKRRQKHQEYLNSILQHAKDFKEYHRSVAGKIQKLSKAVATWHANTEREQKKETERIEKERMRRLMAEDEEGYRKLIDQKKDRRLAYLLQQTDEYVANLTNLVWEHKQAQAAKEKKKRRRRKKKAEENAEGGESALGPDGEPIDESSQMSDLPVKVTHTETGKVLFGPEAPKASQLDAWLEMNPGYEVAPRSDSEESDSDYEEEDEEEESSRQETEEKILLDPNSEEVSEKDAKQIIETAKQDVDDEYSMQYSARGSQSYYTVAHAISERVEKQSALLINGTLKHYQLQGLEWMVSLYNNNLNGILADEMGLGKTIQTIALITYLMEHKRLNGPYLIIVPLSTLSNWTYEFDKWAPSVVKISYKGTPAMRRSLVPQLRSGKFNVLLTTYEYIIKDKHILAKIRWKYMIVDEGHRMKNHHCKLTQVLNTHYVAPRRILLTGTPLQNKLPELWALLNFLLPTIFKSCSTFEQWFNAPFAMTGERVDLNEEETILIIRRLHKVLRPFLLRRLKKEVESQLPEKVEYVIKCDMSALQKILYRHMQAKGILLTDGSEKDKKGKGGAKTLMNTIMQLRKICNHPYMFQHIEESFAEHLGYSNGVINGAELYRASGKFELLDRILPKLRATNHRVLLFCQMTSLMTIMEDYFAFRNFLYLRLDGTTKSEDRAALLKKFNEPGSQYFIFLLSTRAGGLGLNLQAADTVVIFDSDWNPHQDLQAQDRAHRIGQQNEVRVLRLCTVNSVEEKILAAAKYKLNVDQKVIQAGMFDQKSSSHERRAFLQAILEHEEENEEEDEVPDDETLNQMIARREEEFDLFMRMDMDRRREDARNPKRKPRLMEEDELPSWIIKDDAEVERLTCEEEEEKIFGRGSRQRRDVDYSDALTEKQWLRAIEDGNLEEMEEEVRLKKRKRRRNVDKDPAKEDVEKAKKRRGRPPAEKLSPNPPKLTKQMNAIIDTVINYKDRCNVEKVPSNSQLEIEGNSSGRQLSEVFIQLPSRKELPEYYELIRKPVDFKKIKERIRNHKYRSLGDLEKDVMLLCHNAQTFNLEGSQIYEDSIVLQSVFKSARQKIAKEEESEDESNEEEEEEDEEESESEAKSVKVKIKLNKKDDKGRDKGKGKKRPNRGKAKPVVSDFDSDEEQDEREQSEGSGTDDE
T2 sequence (P51531 whole entry): as above

On to `O=C1CCC(N2C(=O)c3ccc(N4CCC(OCCN5CCC(N6CCN7c8cc(-c9ccccc9O)nnc8NC[C@H]7C6)C5)CC4)cc3C2=O)C(=O)N1` (stereo partly drawn) [Example 15, 2-(2,6-Dioxopiperidin-3-yl)-5-(4-(2-(3-((S)-2-(2-hydroxyphenyl)-5,6,6a,7,9,10-hexahydro-8H-pyrazino[1′,2′:4,5]pyrazino[2,3-c]pyridazin-8-yl)pyrrolidin-1-yl)ethoxy)piperidin-1-yl) isoindoline-1,3-dione], for which, at SMARCA2, the DC50 was less than 100 nM and the Dmax is 50 to 75%.
For the compound `O=C1CCC(n2c3ccc(CCCN4CCC(c5cnc(O[C@H]6C[C@@H]7CNc8nnc(-c9ccccc9O)cc8N7C6)nc5)CC4)cc3c3cccnc32)C(=O)N1` (stereo partly drawn) [Example 23, 3-(6-(3-(4-(2-(((6aR,8S)-2-(2-hydroxyphenyl)-5,6,6a,7,8,9-hexahydro-pyrrolo[1′,2′:4,5]pyrazino[2,3-c]pyridazin-8-yl)oxy)pyrimidin-5-yl)piperidin-1-yl)propyl)-9H-pyrido[2,3-b]indol-9-yl)piperidine-2,6-dione], on SMARCA2, the DC50 is less than 100 nM and the Dmax is greater than 75%.
For `O=C1CCC(N2C(=O)c3ccc(N4CC(CCN5CCC(CN6CCN7c8cc(-c9ccccc9O)nnc8NC[C@H]7C6)CC5)C4)cc3C2=O)C(=O)N1` (stereo partly drawn) [Example 275, 2-(2,6-dioxopiperidin-3-yl)-5-(3-(2-(4-(((S)-2-(2-hydroxyphenyl)-5,6,6a,7,9,10-hexahydro-8H-pyrazino[1′,2′:4,5]pyrazino[2,3-c]pyridazin-8-yl)methyl)piperidin-1-yl)ethyl)azetidin-1-yl)isoindoline-1,3-dione], at SMARCA2-HiBiT, the DC50 was less than 10 nM and the Dmax lay within 75 to 85%. Besides, at SMARCA4-HiBiT, the DC50 was less than 10 nM and the Dmax lay in the range of 75 to 85%.
As to `O=C1CCC(N2Cc3ccc(N4CC(CN5CCC(CN6CCN7c8cc(-c9ccccc9O)nnc8NC[C@H]7C6)CC5)C4)cc3C2=O)C(=O)N1` (stereo partly drawn) [Example 276, 3-(6-(3-((4-(((S)-2-(2-hydroxyphenyl)-5,6,6a,7,9,10-hexahydro-8H-pyrazino[1′,2′:4,5]pyrazino[2,3-c]pyridazin-8-yl)methyl)piperidin-1-yl)methyl)azetidin-1-yl)-1-oxoisoindolin-2-yl) piperidine-2,6-dione], at SMARCA2-HiBiT, the DC50 is less than 10 nM and the Dmax was greater than 85%. Moreover, on SMARCA4-HiBiT, the DC50 is less than 10 nM and the Dmax was greater than 85%.
For the compound `O=C1CCC(N2C(=O)c3ccc(N4CC[C@H](CN5C[C@@H]6[C@H](C5)[C@H]6CN5CCN6c7cc(-c8cc(F)ccc8O)nnc7NC[C@H]6C5)[C@@H](F)C4)cc3C2=O)C(=O)N1` (stereo partly drawn) [Example 277, 2-(2,6-dioxopiperidin-3-yl)-5-((3R,4R)-3-fluoro-4-(((1R,5S,6R)-6-(((S)-2-(5-fluoro-2-hydroxyphenyl)-5,6,6a,7,9,10-hexahydro-8H-pyrazino[1′,2′:4,5]pyrazino[2,3-c]pyridazin-8-yl)methyl)-3-azabicyclo[3.1.0]hexan-3-yl)methyl)piperidin-1-yl)isoindoline-1,3-dione], at SMARCA2-HiBiT, the DC50 is less than 10 nM and the Dmax is greater than 85%. For the same compound, at SMARCA4-HiBiT, the “HeLa-HiBit-SM4 Dmax (%)” value was “C (C=50%<Dmax<=75%)” and the DC50 was less than 10 nM.
As to `O=C1CCC(N2C(=O)c3ccc(N4CC[C@H](CN5C[C@@H]6[C@H](C5)[C@H]6CN5CCN6c7cc(-c8cc(F)ccc8O)nnc7NC[C@H]6C5)[C@@H](F)C4)cc3C2=O)C(=O)N1` (stereo partly drawn) [Example 278, 2-(2,6-dioxopiperidin-3-yl)-5-((3R,4R)-3-fluoro-4-(((1R,5S,6R)-6-(((S)-2-(5-fluoro-2-hydroxyphenyl)-5,6,6a,7,9,10-hexahydro-8H-pyrazino[1′,2′:4,5]pyrazino[2,3-c]pyridazin-8-yl)methyl)-3-azabicyclo[3.1.0]hexan-3-yl)methyl)piperidin-1-yl) isoindoline-1,3-dione], on SMARCA2-HiBiT, the “HeLa-HiBit-SM2 Dmax (%)” value was “A (A=Dmax>85%)” and the DC50 was less than 10 nM. Besides, on SMARCA4-HiBiT, the “HeLa-HiBit-SM4 Dmax (%)” value is given as “A (A=Dmax>85%)” and the DC50 is less than 10 nM.
For the compound `O=C1CCC(N2C(=O)c3ccc(N4CC[C@H](CN5CCC(C(=O)N6CCN7c8cc(-c9cc(F)ccc9O)nnc8NC[C@H]7C6)CC5)[C@@H](F)C4)cc3C2=O)C(=O)N1` (stereo partly drawn) [Example 279, 2-(2,6-dioxopiperidin-3-yl)-5-((3R,4R)-3-fluoro-4-((4-((S)-2-(5-fluoro-2-hydroxyphenyl)-6,6a,7,8,9,10-hexahydro-5H-pyrazino[1′,2′:4,5]pyrazino[2,3-c]pyridazine-8-carbonyl)piperidin-1-yl)methyl)piperidin-1-yl)isoindoline-1,3-dione], at SMARCA2-HiBiT, the DC50 was less than 10 nM and the Dmax is greater than 85%. Further, on SMARCA4-HiBiT, the “HeLa-HiBit-SM4 Dmax (%)” value is “C (C=50%<Dmax<=75%)” and the DC50 is less than 10 nM.
Take `O=C1CCC(N2C(=O)c3ccc(N4CC[C@H](CN5CCC(C(=O)N6CCN7c8cc(-c9cc(F)ccc9O)nnc8NC[C@H]7C6)CC5)[C@@H](F)C4)cc3C2=O)C(=O)N1` (stereo partly drawn) [Example 280, 2-(2,6-dioxopiperidin-3-yl)-5-((3R,4R)-3-fluoro-4-((4-((S)-2-(5-fluoro-2-hydroxyphenyl)-6,6a,7,8,9,10-hexahydro-5H-pyrazino[1′,2′:4,5]pyrazino[2,3-c]pyridazine-8-carbonyl)piperidin-1-yl)methyl)piperidin-1-yl)isoindoline-1,3-dione]: on SMARCA2-HiBiT, the “HeLa-HiBit-SM2 Dmax (%)” value is on record as “A (A=Dmax>85%)” and the DC50 was less than 10 nM. Further, at SMARCA4-HiBiT, the “HeLa-HiBit-SM4 Dmax (%)” value was “B (B=75%<Dmax<=85%)” and the DC50 was less than 10 nM.
`O=C1CCC(N2C(=O)c3ccc(N4CC[C@H](CN5C[C@@H]6[C@H](C5)[C@H]6CN5CCN6c7cc(-c8c(O)cccc8F)nnc7NC[C@H]6C5)[C@@H](F)C4)cc3C2=O)C(=O)N1` (stereo partly drawn) [Example 281, 2-(2,6-dioxopiperidin-3-yl)-5-((3R,4R)-3-fluoro-4-(((1R,5S,6R)-6-(((S)-2-(2-fluoro-6-hydroxyphenyl)-5,6,6a,7,9,10-hexahydro-8H-pyrazino[1′,2′:4,5]pyrazino[2,3-c]pyridazin-8-yl)methyl)-3-azabicyclo[3.1.0]hexan-3-yl)methyl)piperidin-1-yl) isoindoline-1,3-dione]: at SMARCA2-HiBiT, the DC50 is less than 10 nM and the Dmax was 75 to 85%. At SMARCA4-HiBiT, the DC50 lay within 10 to 100 nM and the Dmax was no more than 50%.
For `O=C1CCC(N2Cc3ccc(N4CCC(CN5CCN(C(=O)N6CCN7c8cc(-c9cc(F)ccc9O)nnc8NC[C@H]7C6)CC5)CC4)cc3C2=O)C(=O)N1` (stereo partly drawn) [Example 282, 3-(6-(4-((4-((S)-2-(5-fluoro-2-hydroxyphenyl)-6,6a,7,8,9,10-hexahydro-5H-pyrazino[1′,2′:4,5]pyrazino[2,3-c]pyridazine-8-carbonyl)piperazin-1-yl)methyl)piperidin-1-yl)-1-oxoisoindolin-2-yl)piperidine-2,6-dione], at SMARCA2-HiBiT, the DC50 was less than 10 nM and the Dmax is greater than 85%. For the same compound, on SMARCA4-HiBiT, the DC50 was less than 10 nM and the Dmax was 75 to 85%.

The term DC50 denotes the concentration giving 50% degradation.
